According to patent publication US20250290915A1, “METHOD FOR PREDICTING RESPONSIVENESS TO THERAPY” (CANCERTAIN LIMITED, priority 2022, published 2025):

Legend:
[1] = system: Circulating Tumour Cells (CTCs) from a patient with sex cord stromal tumour, ovarian tumour; experiment: Drug response score assay on CTCs from blood, Example 4; assay type: cell-based, human; set-up: key to Drug response score, conc. 1 / Drug response score, conc. 2 / Drug response score, conc. 3 / Drug response score, conc. 4: normalized drug response metric (Gupta et al. 2020); conditions: for Drug response score, conc. 1: conc. 1: Cyclo 2.5 μg/ml, Vinc 10 ng/ml, Etop 1 μg/ml, Bini 100 ng/ml, Doxo 10 ng/ml; for Drug response score, conc. 1 / Drug response score, conc. 2 / Drug response score, conc. 3 / Drug response score, conc. 4: CTCs, t96h; for Drug response score, conc. 2: conc. 2: Cyclo 10 μg/ml, Vinc 20 ng/ml, Etop 4 μg/ml, Bini 200 ng/ml, Doxo 30 ng/ml; for Drug response score, conc. 3: conc. 3: Cyclo 40 μg/ml, Vinc 40 ng/ml, Etop 20 μg/ml, Bini 400 ng/ml, Doxo 90 ng/ml; for Drug response score, conc. 4: conc. 4: Cyclo 160 μg/ml, Vinc 80 ng/ml, Etop 100 μg/ml, Bini 800 ng/ml, Doxo 270 ng/ml; for effectiveness on Circulating Tumour Cells (CTCs) under laboratory conditions / Drug sensitivity as calculated by the assay (interpretation of Drug Response Scores): sex cord stromal / ovarian tumour CTCs; for Drug sensitivity as calculated by the assay (interpretation of Drug Response Scores): Table 14
Procedure: (§1) CD45^+ cells and circulating tumour cells (CTCs) were isolated from a blood sample provided by each subject.
(§2) CD45 separation was performed by adding human CD45 microbeads (50 μl/ml blood), incubating for 15 minutes at 4° C. and then processing using an AutoMACS machine. This separates the blood sample into CD45^+ and CD45^−cells in 2 separate falcons. The falcon tubes are then centrifuged at 1200 rpm for 5 minutes.
(§3) The supernatant was removed from the CD45^−falcon tube, and the CD45^−cells contacted with 100 μl of FcR block and 100 μl of CD326 (EpCAM) MicroBeads, followed by incubation at […] 4° C. for 30 minutes. The CD45^−cells were then processed using an AutoMACS machine to separate the EpCAM positive and negative cells into 2 separate falcon tubes. The EpCAM-cells were discarded. The supernatant was removed from the EpCAM^+ cells, and the cells resuspended in DMEM with 2 μl Cell Tox, 2 μl MT and 2 μl MT. 20 μl of the resuspended pellet was then added to all sample wells excluding a blank. After all wells are added to, a cell count was conducted on the […] to determine the number of circulating tumour cells (CTCs).
(§4) The different cell types were each divided equally into populations, depending on the number of drugs/concentrations to be tested and plated on a cell-culture plate pre-coated with a scaffold of polycaprolactone (PCL) electrospun fibres and incubated at 37° C., 5% CO2, for 5 to (typically 10) minutes to facilitate cell attachment. After attachment, an initial imaging step was carried out using the RealTime-Glo™ MT assay from Promega (Catalogue No. G9711)) and the CellTox™ Green Cytotoxicity Assay (Promega, Catalogue No. G8741), carried out according to manufacturer's instructions. Following this initial imagining, the immunotherapeutic and/or chemotherapeutic agents were added to the cell populations as indicated below. After 10 minutes, the imagining step was repeated. The cell populations were then incubated at 37° C., 5% CO2 for 48 hours. The imaging step was then repeated. The cell populations were then re-dosed with the same immunotherapeutic and/or chemotherapeutic agents as indicated below, and incubated at 37° C., 5% CO2 for a further 48 hours. After this second 48 hour incubation, the imagining step was repeated for a final time.
(§5) At the end of this culture period, dose response scores were calculated using a normalized drug response metric as described in Gupta et al. (Communications Biology volume 3, Article number: 42 (2020), https://doi.org/10.1038/s42003-020-0765-z). The start readout for a given immunotherapeutic or chemotherapeutic agent at a given concentration was the to readout for said immunotherapeutic or chemotherapeutic agent at a specified concentration. The end readout for a given immunotherapeutic or chemotherapeutic agent at a given concentration was the final timepoint reading (t96h) for said immunotherapeutic or chemotherapeutic agent at a specified concentration.
(§6) The positive control start readout for a given drug/concentration was the to readout for the corresponding drug at a specified concentration. The positive control end readout for the corresponding drug at a specified concentration was the final timepoint reading (t96h) for the corresponding blank well.
(§7) The negative control start and end readouts for a given immunotherapeutic or chemotherapeutic agent at a given concentration were the to and final timepoint reading (t96h) respectively for blank cell or blank immuno cell well respectively.
The sensitivity or resistance of a subject's cancer to a given immunotherapeutic or chemotherapeutic agent was determined based on the calculated drug response score as shown in Table 2.
Blood samples from a patient with sex cord stromal tumour, ovarian tumour (epitheliod neoplasm, stage 3 recurrence after surgery (resection) and previous chemotherapy) were received on 19 Jul. 2021 and tested using a 5 drug panel. […]

[2] = system: Circulating Tumour Cells (CTCs) from a patient with lung cancer (adenocarcinoma); experiment: Drug response score assay on CTCs (with CD45+ cells for immunotherapy) from blood, Example 5; assay type: cell-based, human; conditions: for Drug response score, conc. 1: conc. 1: Niv 20 μg/ml, Gm 2 μg/ml, Vin 20 μg/ml, Gf 100 ng/ml, E 0.75 μg/ml, Afa 20 ng/ml, Metho 0.5 μg/ml, Cz 200 ng/ml, Pal 40 ng/ml (CTCs); for Drug response score, conc. 1 / Drug response score, conc. 2: Pem 20 μg/ml (CTCs + CD45+ cells); for Drug response score, conc. 1 / Drug response score, conc. 2 / Drug response score, conc. 3 / Drug response score, conc. 4: t96h; for Drug response score, conc. 2: conc. 2: Niv 20 μg/ml, Gm 10 μg/ml, Vin 40 μg/ml, Gf 200 ng/ml, E 1.5 μg/ml, Afa 50 ng/ml, Metho 1 μg/ml, Cz 1000 ng/ml, Pal 80 ng/ml (CTCs); for Drug response score, conc. 3: conc. 3: Niv 80 μg/ml, Pem 100 μg/ml (CTCs + CD45+ cells), Gm 20 μg/ml, Vin 80 μg/ml, Gf 600 ng/ml, E 3 μg/ml, Afa 100 ng/ml, Metho 2 μg/ml, Cz 2000 ng/ml, Pal 160 ng/ml (CTCs); for Drug response score, conc. 4: conc. 4: Niv 160 μg/ml, Pem 160 μg/ml (CTCs + CD45+ cells), Gm 40 μg/ml, Vin 200 μg/ml, Gf 1200 ng/ml, E 6 μg/ml, Afa 150 ng/ml, Metho 4 μg/ml, Cz 4000 ng/ml, Pal 320 ng/ml (CTCs); for Drug sensitivity as calculated by the assay (interpretation of Drug Response Scores): Table 17
Procedure: as §1, §2
The supernatant was removed from the CD45^+falcon tube, and the cells resuspended in DMEM with 2 μl Cell Tox, 2 μl MT and 2 μl MT. 20 μl of the resuspended CD45^+ cells was then plated in each well which will contain an immunotherapy treatment.
as §3, §4, §5, §6, §7
The sensitivity or resistance of a subject's cancer to a given immunotherapeutic or chemotherapeutic agent was determined based on the calculated drug response score as shown in Table 2. […]

Compound	Drug response score, conc. 1 [1]	Drug response score, conc. 2 [1]	Drug response score, conc. 3 [1]	Drug response score, conc. 4 [1]	effectiveness on Circulating Tumour Cells (CTCs) under laboratory conditions [1]	Drug sensitivity as calculated by the assay (interpretation of Drug Response Scores) [1]	Drug response score, conc. 1 [2]	Drug response score, conc. 2 [2]	Drug response score, conc. 3 [2]	Drug response score, conc. 4 [2]	Drug sensitivity as calculated by the assay (interpretation of Drug Response Scores) ([2]; lung cancer CTCs)	effectiveness on Circulating Tumour Cells (CTCs) under laboratory conditions ([2]; lung cancer CTCs)
COc1cc([C@@H]2c3cc4c(cc3[C@@H](O[C@@H]3O[C@@H]5CO[C@@H](C)O[C@H]5[C@H](O)[C@H]3O)[C@H]3COC(=O)[C@H]23)OCO4)cc(OC)c1O [Etoposide]	0.79	1.06	1.19	1.35	not effective	Resistant						
COc1cccc2c1C(=O)c1c(O)c3c(c(O)c1C2=O)C[C@@](O)(C(=O)CO)C[C@@H]3O[C@H]1C[C@H](N)[C@H](O)[C@H](C)O1 [Doxorubicin]	0.68	0.93	0.54	0.93	show effectiveness	Sensitive (S++)						
Pembrolizumab							−0.34	−0.15	0.05	0.24	S++	
Nivolumab							−0.45	−0.80	−0.12	−0.22	S++	more effective than Pembrozulimab
